Values joined by “and” are separate entries in the source; they are usually repeats but may differ in a detail not shown here. Equal values may be shown once. Read-outs that look alike come from different tables or passages of the source.
How the values were obtained:
cells in bone = conditions: decontamination with 2% chlorhexidine gluconate; cited from earlier work
[1] = test system: chondrocytes of osteoarticular fracture fragments; test: Viable chondrocyte density / % VCD, live-dead assay (Example 5); assay type: cell-based; conditions: for % VCD (percentage of mean VCD of healthy day-0 samples): 20 min immersion (10% povidone-iodine or 0.002% chlorhexidine gluconate)
Description: Skeletally mature purpose-bred research hounds (n=16) were humanely euthanized for purposes unrelated to the present study. Immediately following euthanasia, each dog was positioned in sternal recumbency with one forelimb extended and secured in a custom-made positioning apparatus. Fur was not clipped and no aseptic preparation or decontamination techniques were performed. Using a validated technique, a penetrating captive bolt stunner pistol (CASH Special, FRONTMATEC, Birmingham, United Kingdom) with a 1.25 grain cartridge was centered on the cranial (anterior) aspect of the distal humerus, immediately proximal to the elbow joint and with firm pressure against the secured elbow, the pistol was discharged, creating type 3 open distal humeral fractures. After the fractures were induced and radiographs obtained, the skin and soft tissues were aseptically removed. For each elbow (n=32), osteoarticular tissues were obtained from the distal humerus, proximal radius and proximal ulna such that 96 contaminated, devascularized, osteoarticular fracture fragments were randomly allocated to undergo treatment using one of the following protocols for comparison: 1)⋅Betadine (n=42): bulb irrigation using 1 L of 0.9% saline, followed by immersion in 10% povidone-iodine solution for 20 min, followed by bulb irrigation using 1 L of 0.9% saline; 2)⋅Chlorhexidine (n=42): bulb irrigation using 1 L of 0.9% saline, followed by immersion in 0.002% chlorhexidine gluconate solution immersion for 20 min, followed by bulb irrigation using 1 L of 0.9% saline; and 3)⋅Injured Control (n=12): no decontamination treatment. Each fragment was then immediately placed in 200 ml of Missouri Osteochondral Preservation System (MOPS®) solution in individual sterile closed containers, transported to the on-site laboratory and placed in a dedicated storage cabinet in standard room temperature and humidity conditions for 7 or 14 days.
Viable Chondrocyte Density. At days 7 (n=21) or 14 (n=21) of storage, osteoarticular tissues were collected and processed for assessment of viable chondrocyte density (VCD). VCD was assessed using a live-dead assay involving calcein AM (live stain) and ethidium homodimer (dead stain). Briefly, tissues were sagittally sectioned using a Buchler Isomet low speed saw (Lake Bluff, IL, USA) to produce representative 1 mm-thick sections from each. Sections were placed in 6-well plates containing calcein AM (1 μg/ml) solution and ethidium homodimer (1 μM) in Phosphate Buffered Saline (PBS). The plates were incubated for 30 minutes at 37° C. After incubation, the stain was removed, the samples rinsed in PBS and tissues were mounted to the bottom of the plate using a 4% agarose solution. Fluorescent microscopy was used to obtain two images per section, which were analyzed to quantify tissue viability based on VCD. The VCD was determined by counting the number of viable cells in each image and dividing this by the area of the tissue in the image (#of viable cells/area of cartilage tissue mm^2). The percentage of viable chondrocyte density (% VCD) for each fracture fragment was calculated based on the mean VCD of healthy day-0 samples using the formula: (fractured VCD/control VCD)×100.
Statistical Analysis. All data were analyzed using statistical software R Studio, version 4.3.1 (Posit Software, Boston, MA, USA). Descriptive statistics for VCD, % VCD and CFU were calculated to report means, standard deviations, ranges and percentages. […]

[2] = test system: canines with grade 3 open femoral bicondylar fracture; test: Functional outcomes after reimplantation of decontaminated fracture fragment (Example 4); assay type: in vivo, canine
Description: (§1) A grade 3 open femoral bicondylar fracture was created in 3 canines. A lateral parapatellar approach was used, the fragment was cultured and retrieved. The fragment was irrigated, treated with 0.002% chlorhexidine for 20 minutes, irrigated, and stored in MOPS® for 7 days, after which the fragment was reimplanted, and both condyles were repaired with 3.5 mm cannulated lag screws. After 3 months, quantitative bacterial cultures (CFU/g; Table 2) and functional outcomes (Table 3) were measured.

[3] = test system: bacteria (quantitative bacterial cultures); test: Quantitative bacterial cultures, in vivo reimplantation of decontaminated fracture fragment (Example 4); parameters: species or system canine; conditions: individual dogs
Description: as §1

human chondrocyte = conditions: cited from earlier work
[4] = 3 months after reimplantation of fragment treated with 0.002% chlorhexidine and stored in MOPS 7 days

[H]/N=C(\N/C(=N/[H])NCCCCCCNC(=N)NC(=N)Nc1ccc(Cl)cc1)Nc1ccc(Cl)cc1 [Chlorhexidine, chlorhexidine gluconate]
cell viability in bone (cells in bone): complete loss of cell viability
maintenance of minimum essential chondrocyte viability (in words) ([1]; 0.002% chlorhexidine immersion 20 min, shelf-stable storage in MOPS): maintaining minimum essential chondrocyte viability for up to 14 days
% VCD (percentage of mean VCD of healthy day-0 samples) ([1]; Day 7 of MOPS storage): 75.7 ± 24.2%
% VCD (percentage of mean VCD of healthy day-0 samples) ([1]; Day 14 of MOPS storage): 70.1 ± 24.1%
% VCD compared with other groups (in words) ([1]; days 7 and 14): significantly (p<0.001) higher than for the Betadine and Injured Control groups
mean % VCD versus minimum essential threshold ([1]; days 7 and 14 of MOPS storage): > 70%
Function (VAS) Post [2, 4]: 9 and 8.8 and 9.3
ROM Post [2, 4]: 101 degrees and 97 degrees and 104 degrees
Pain (VAS) Post ([2]; Post, individual dogs): 0
Pain (VAS) Pre ([2]; Pre, individual dogs): 1.2 and 1.9 and 0.6
Function (VAS) Pre ([2]; baseline, individual dogs): 10
ROM Pre ([2]; baseline, individual dogs): 108 degrees and 107 degrees and 109 degrees
quantitative bacterial culture, Endpoint, Fracture Fragment ([3]; 3 months after reimplantation): 0 CFU/g
quantitative bacterial culture, Endpoint, Synovium ([3]; 3 months after reimplantation): 0 CFU/g
quantitative bacterial culture, Reimplantation, MOPS Media ([3]; after 0.002% chlorhexidine 20 min and 7 days storage in MOPS): 0 CFU/g
quantitative bacterial culture, Initial Trauma, Fracture Fragment ([3]; baseline, before 0.002% chlorhexidine treatment): 355 CFU/g and 0 CFU/g and 41 CFU/g
quantitative bacterial culture, Initial Trauma, Synovium ([3]; baseline, before treatment): 0 CFU/g (2×) and 119 CFU/g
chondrocyte viability after treatment (human chondrocyte; 0.002% chlorhexidine gluconate, 7 days in tissue culture, listed as Chlorhexidine Gluconate): preserving chondrocyte viability for up to 7 days
chondrocyte viability after treatment (human chondrocyte; 0.002% chlorhexidine gluconate, 7 days in tissue culture, listed as chlorhexidine gluconate): maintain chondrocyte viability at day-0 level for 7 days
chondrocyte viability after treatment (human chondrocyte; higher concentrations of CHG than 0.002%): significant chondrocyte viability loss within 24 hours
